In PubChem BioAssay (NCI):
“And” between values parts separate entries of the source, which are not always exact repeats. Equal entries are not always repeated.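 Test compounds were applied to cells in 96-well plates for 48 hours at 5 doses. TGI: total growth inhibition.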

Assays:
Test in all cases: growth of human tumour cells (NCI), 48 h
[1] = system: OVCAR-5 ovarian
[2] = system: SK-MEL-5 melanoma
[3] = system: UACC-62 melanoma
[4] = system: SNB-75 CNS
[5] = system: A549 NSCLC
[6] = system: NCI/ADR-RES ovarian
[7] = system: HL-60(TB) leukemia
[8] = system: A498 renal
[9] = system: HOP-62 NSCLC
[10] = system: RPMI-8226 leukemia
[11] = system: SNB-19 CNS
[12] = system: MDA-N
[13] = system: IGROV1 ovarian
[14] = system: OVCAR-3 ovarian
[15] = system: NCI-H23 lung
[16] = system: RXF 393 renal
[17] = system: NCI-H460 lung
[18] = system: NCI-H522 lung
[19] = system: ACHN renal
[20] = system: HOP-18 NSCLC

SMILES | TGI [1] [µM] | TGI [2] [µM] | TGI [3] [µM] | TGI [4] | TGI [5] [µM] | TGI [6] [µM] | TGI [7] [µM] | TGI [8] [µM] | TGI [9] [µM] | TGI [10] [µM] | TGI [11] [µM] | TGI [12] [µM] | TGI [13] [µM] | TGI [14] [µM] | TGI [15] [µM] | TGI [16] [µM] | TGI [17] [µM] | TGI [18] [µM] | TGI [19] [µM] | TGI [20] [µM]
Cc1cccc(CC(Cc2c(C)cccc2C(=O)O)C(=O)O)c1 (stereo not given) | > 100 | 37.2 | 10.6 | > 100 µM | > 100 | > 100 | > 100 | > 100 | > 100 | > 100 | > 100 | > 100 | > 100 | > 100 | > 100 | > 100 | > 100 | > 100 | > 100 | –
CC(C)OP(=O)(OC(C)C)/C(C#N)=C/c1ccco1 | > 100 | > 100 | > 100 | > 100 µM | > 100 | > 100 | > 100 | > 100 | > 100 | > 100 | > 100 | > 100 | > 100 | > 100 | > 100 | > 100 | > 100 | > 100 | > 100 | –
CCCCSC1=N/C(=C\c2ccc(N(C)C)cc2)C(NN)=N1 | > 100 | – | > 100 | > 100 µM | > 100 | > 100 | > 100 | > 100 | > 100 | > 100 | > 100 | > 100 | > 100 | > 100 | > 100 | > 100 | > 100 | > 100 | > 100 | –
COc1ccc(C2Oc3cc(OC)c(O)c(C)c3[C@H]2C)cc1 (stereo not given in full) | > 100 | > 100 | > 100 | 69.5 µM | > 100 | – | 76.7 | > 100 | > 100 | – | > 100 | – | > 100 | > 100 | > 100 | > 100 | > 100 | > 100 | > 100 | > 100
COc1cc(C)cc2c1c(=O)c1ccccc1n2C | > 100 | 51.3 | 62.5 | 99.4 µM | > 100 | > 100 | 83.3 | 89.2 | > 100 | 66 | > 100 | > 100 | > 100 | > 100 | > 100 | 73.8 | > 100 | > 100 | > 100 | –
CC(C)(C)c1cc2c(O)c(c1)Cc1cc(C(C#N)(Cc3ccc4ccccc4c3)Cc3ccc4ccccc4c3)cc(c1O)Cc1cc(C(C)(C)C)cc(c1O)Cc1cc(C(C#N)(Cc3ccc4ccccc4c3)Cc3ccc4ccccc4c3)cc(c1O)C2 | > 100 | > 100 | > 100 | > 100 µM | > 100 | > 100 | > 100 | > 100 | > 100 | > 100 | > 100 | > 100 | > 100 | > 100 | > 100 | > 100 | > 100 | > 100 | > 100 | –
CC1=CCC2C3(C)CCC2(C(C)C)C1C3 (stereo not given) (tested in a mixture with another compound) | 37.6 | – | > 100 | 77.5 µM | 39 | 37.7 | 57.3 | 89.4 | 57.5 | 56.7 | 33.8 | > 100 | 35.1 | 30.2 | > 100 | 33.2 | 32.9 | 39.3 | 36.9 | –
O=C(N/N=C/c1ccc([N+](=O)[O-])o1)c1ccc(C(=O)N/N=C/c2ccc([N+](=O)[O-])o2)cc1 | > 100 | 55.6 | > 100 | > 100 µM | > 100 | > 100 | 44.4 | > 100 | > 100 | 26.1 | > 100 | 50.2 | > 100 | 73.9 | > 100 | > 100 | – | > 100 | > 100 | –
Clc1ccccc1C1=NN(c2ccccc2)C2c3ccccc3OCC12 (stereo not given) | > 100 | > 100 | – | > 100 µM | > 100 | – | > 100 | > 100 | > 100 | > 100 | > 100 | – | > 100 | > 100 | > 100 | > 100 | > 100 | > 100 | > 100 | > 100
CN(C)Cc1cc(C(C)(C)C)ccc1-c1ccc(C(C)(C)C)cc1CN(C)C | > 100 | > 100 | > 100 | > 100 µM | > 100 | > 100 | > 100 | > 100 | > 100 | > 100 | > 100 | > 100 | > 100 | > 100 | > 100 | > 100 | > 100 | > 100 | > 100 | –
CC(C)CCC[C@@H](C)C1CCC2[C@@H]3CC=C4C[C@@H](C(=O)NCC[N+](C)(C)CCCS(=O)(=O)[O-])CC[C@]4(C)C3CC[C@@]21C (stereo not given in full) | – | 41.4 | 34.7 | 35.1 µM | 31.7 | – | 28.3 | – | 42.9 | 41.5 | 36.4 | – | 32.6 | 30 | – | 36.5 | 30.6 | 23.6 | 32.5 | 35.8
CCOP(=O)(C/C=C/Cn1nc(Br)c(=O)[nH]c1=O)OCC | > 100 | > 100 | > 100 | > 100 µM | > 100 | > 100 | > 100 | > 100 | > 100 | > 100 | > 100 | > 100 | > 100 | > 100 | > 100 | > 100 | > 100 | > 100 | > 100 | –
CCOC(=O)C(C(=O)c1ccccc1C(=O)OC)=P(c1ccccc1)(c1ccccc1)c1ccccc1 | > 10 | > 10 | > 10 | > 10 µM | > 10 | > 10 | > 10 | > 10 | > 10 | > 10 | > 10 | > 10 | > 10 | > 10 | > 10 | > 10 | > 10 | > 10 | > 10 | –
CCN1C[C@]2(C)CC[C@H](OC)C34C1C([C@H](OC(C)=O)[C@@H]32)[C@@]1(OC)C[C@H](OC)[C@H]2C[C@@H]4[C@@H]1[C@H]2O | > 100 | > 100 | > 100 | > 100 µM | > 100 | – | > 100 | > 100 | > 100 | > 100 | > 100 | – | > 100 | – | > 100 | > 100 | > 100 | > 100 | > 100 | > 100
CN(C)CC1COC2Cc3ccccc3C1O2 (stereo not given) | > 100 | > 100 | > 100 | 75.7 µM and 94.5 µM | > 100 | > 100 | > 100 | > 100 | > 100 | > 100 | > 100 | > 100 | > 100 | > 100 | > 100 | > 100 | > 100 | > 100 | > 100 | –
CCCCOC(=O)NC(Nc1cccc(C(F)(F)F)c1)(C(F)(F)F)C(F)(F)F | > 100 | > 100 | > 100 | > 100 µM | > 100 | > 100 | 56.2 | > 100 | > 100 | 61.5 | > 100 | > 100 | > 100 | > 100 | > 100 | > 100 | > 100 | > 100 | > 100 | –
Cc1ccc2c(n1)C(=O)C=CC2=O | 34.4 | 29.4 | 29.2 | 38.2 µM | 41.2 | 48.6 | > 22.5 | 31.1 | > 58.3 | 11 | 34 | 20.3 | 29.3 | 8.54 | 30.6 | 13.6 | 36.2 | 3.51 | 8.63 | –
CCN(CC)CCN1C(=O)c2c(c(-c3ccccc3)c3ccccc3c2-c2ccccc2)C1=O | > 100 | > 100 | > 100 | > 100 µM | > 100 | > 100 | > 100 | > 100 | > 100 | > 100 | > 100 | > 100 | > 100 | – | – | > 100 | > 100 | > 100 | > 100 | –
CC(=O)NNc1nc(C)c(C(/C=C/c2ccc([N+](=O)[O-])cc2)=N/NC(N)=S)s1 | > 100 | > 100 | > 100 | > 100 µM | > 100 | > 100 | > 100 | > 100 | > 100 | > 100 | > 100 | > 100 | > 100 | > 100 | > 100 | > 100 | > 100 | > 100 | > 100 | –
O=C(Nc1c(C(F)(F)F)cc(-c2ccccc2)[nH]c1=O)N1CCOCC1 | > 100 | > 100 | > 100 | > 100 µM | > 100 | > 100 | 79.5 | > 100 | > 100 | > 100 | > 100 | > 100 | > 100 | > 100 | > 100 | > 100 | > 100 | > 100 | > 100 | –
C/C1=C/C(C)CC(C)OC(=O)C(C)NC(=O)C(Cc2ccc(O)c(I)c2)N(C)C(=O)C(C)NC(=O)C(C)C1 (stereo not given) | > 100 | 11.7 | 15 | < 0.01 µM | > 100 | 24.4 | < 0.01 | < 0.0137 | < 0.01 | 10.1 | > 100 | 30.7 | < 0.01 | < 0.01 | 44.4 | < 0.0106 | 12.8 | 0.649 | – | –
COc1cc(C2SC(N)=Nc3c2c(C)nn3C(=O)c2ccccc2O)ccc1O (stereo not given) | > 10 | > 10 | > 10 | > 10 µM | > 10 | > 10 | > 4.56 | > 10 | > 10 | > 7.78 | > 10 | > 10 | > 3.33 | > 10 | > 10 | > 10 | > 10 | > 10 | > 10 | –
O=C(/C=C1\C[C@H]2C=Nc3ccccc3C(=O)N2C1)NCCCCNC(=O)/C=C1\C[C@H]2C=Nc3ccccc3C(=O)N2C1 | 34.4 | 27.1 | 29 | 31.9 µM | 49.1 | 47.1 | 12.6 | 32.9 | 38.5 | 18.6 | 31.8 | 24.3 | 27.8 | 36.3 | 27 | 19.2 | 37.5 | 3.57 | 12.6 | –
O=C1O[C@H]2[C@H](O)[C@@H](OC(=O)c3cc(O)c(O)c4c3[C@@H]3C1=CC(=O)C(O)(O)C3(O)O4)[C@H](OC(=O)c1cc(O)c(O)c(O)c1)O[C@@H]2CO (stereo not given in full) | > 100 | > 100 | > 100 | > 100 µM | > 100 | > 100 | > 100 | > 100 | > 100 | > 100 | > 100 | > 100 | > 100 | > 100 | > 100 | > 100 | > 100 | > 100 | > 100 | –
